Key:
Type in all cases: in vivo
[1] = tested on: common chickweed (Stellaria media); assay: Test F pre/postemergence
Source text: (§1) Seeds or nutlets of plant species selected from (turf) bermudagrass (Cynodon dactylon), Kentucky bluegrass (Poa pratensis), bentgrass (Agrostis palustris), hard fescue (Festuca ovina), large crabgrass (Digitaria sanguinalis), goosegrass (Eleusine indica), dallisgrass (Paspalum dilatatum), annual bluegrass (Poa annua), common chickweed (Stellaria media), dandelion (Taraxacum officinale), white clover (Trifolium repens), and yellow nutsedge (Cyperus esculentus) were planted and treated preemergence with the test chemical formulated in a non-phytotoxic solvent mixture which included a surfactant.
(§2) At the same time, plants selected from these crop and weed species were treated with postemergence applications of the test chemical formulated in the same manner. Plants ranged in height from 2 to 18 cm (1- to 4-leaf stage) for postemergence treatments. Treated plants and controls were maintained in a greenhouse for 12 to 14 days, after which time all species were compared to controls and visually evaluated. Plant response ratings, summarized in Table F, are based on a scale of 0 to 100 where 0 is no effect and 100 is complete control. A dash (-) response means no test result.

[2] = tested on: bentgrass (Agrostis palustris); assay: Test F pre/postemergence
Source text: as §1, §2

[3] = tested on: large crabgrass (Digitaria sanguinalis); assay: Test F pre/postemergence
Source text: as §1, §2

[4] = tested on: white clover (Trifolium repens); assay: Test F pre/postemergence
Source text: as §1, §2

[5] = tested on: dallisgrass (Paspalum dilatatum); assay: Test F pre/postemergence
Source text: as §1, §2

[6] = tested on: dandelion (Taraxacum officinale); assay: Test F pre/postemergence
Source text: as §1, §2

[7] = tested on: annual bluegrass (Poa annua); assay: Test F pre/postemergence
Source text: as §1, §2

[8] = tested on: goosegrass (Eleusine indica); assay: Test F pre/postemergence
Source text: as §1, §2

[9] = tested on: wild mustard (SINAR; Sinapis arvensis); assay: Test I mixtures of compound 9 with metsulfuron-methyl and chlorsulfuron-metsulfuron-methyl (5:1); conditions: applied alone
Source text: (§3) This test evaluated the effect of mixtures of compound 9 with metsulfuron-methyl and with a 5:1 by weight combination of chlorsulfuron and metsulfuron-methyl on several plant species. Seeds of test plants consisting of wheat (TRZAW; Triticum aestivum), wild buckwheat, (POLCO; Polygonum convolvulus), redroot pigweed (AMARE; Amaranthus retroflexus), wild mustard (SINAR; Sinapis arvensis), catchweed bedstraw (GALAP; Galium aparine), Russian thistle (SASKR; Salsola kali), common chickweed (STEME; Stellaria media), kochia (KCHSC; Kochia scoparia), and lambsquarters (CHEAL; Chenopodium album) were planted into a blend of loam soil and sand. Plants were grown in a greenhouse using supplemental lighting to maintain a photoperiod of about 14 hours; daytime and nighttime temperatures were about 23° C. and 16° C., respectively. Balanced fertilizer was applied through the watering system. The plants were grown for 10 to 23 days so that at time of treatment the plants ranged from 2- to 8-leaf stage. Treatments consisted of Compound 9, metsulfuron-methyl, and chlorsulfuron-metsulfuron-methyl (5:1) alone and in combination. The treatments were formulated in a non-phytotoxic solvent mixture which included a surfactant and applied as a foliage spray using a volume of 280-458 L/ha. Each treatment was replicated three times. […] Treated plants and controls were maintained in the greenhouse and watered as needed with care to not wet the foliage for the first 24 hours after treatment. The effects on the plants approximately 17 days after treatment were visually compared to untreated controls. Plant response ratings were calculated as the means of the three replicates, based on a scale of 0 to 100 where 0 is no effect and 100 is complete control. Colby's Equation was used to determine the herbicidal effects expected from the mixtures.

[10] = tested on: Russian thistle (SASKR; Salsola kali); assay: as above; conditions: applied alone
Source text: as §3

[11] = tested on: lambsquarters (CHEAL; Chenopodium album); assay: as above; conditions: applied alone
Source text: as §3

[12] = tested on: redroot pigweed (AMARE; Amaranthus retroflexus); assay: as above; conditions: applied alone
Source text: as §3

CCOC(=O)c1nc(C2CC2)nc(N)c1Br [Compound 1, ethyl 6-amino-5-bromo-2-cyclopropyl-4-pyrimidinecarboxylate]
60: Plant response rating (0 to 100 scale) ([2]; Preemergence, 62 g ai/ha) | Plant response rating (0 to 100 scale) ([2]; Preemergence, 125 g ai/ha) | Plant response rating (0 to 100 scale) ([5]; Postemergence, 500 g ai/ha)
10: Plant response rating (0 to 100 scale) ([5]; Preemergence, 31 g ai/ha) | Plant response rating (0 to 100 scale) ([8]; Postemergence, 62 g ai/ha)
80: Plant response rating (0 to 100 scale) ([1]; Postemergence, 62 g ai/ha) | Plant response rating (0 to 100 scale) ([1]; Preemergence, 31 g ai/ha) | Plant response rating (0 to 100 scale) ([4]; Preemergence, 31 g ai/ha)
30: Plant response rating (0 to 100 scale) ([2]; Postemergence, 62 g ai/ha) | Plant response rating (0 to 100 scale) ([8]; Preemergence, 31 g ai/ha) | Plant response rating (0 to 100 scale) ([8]; Preemergence, 125 g ai/ha)
65: Plant response rating (0 to 100 scale) ([7]; Preemergence, 62 g ai/ha) | Plant response rating (0 to 100 scale) ([8]; Preemergence, 250 g ai/ha)
95: Plant response rating (0 to 100 scale) ([3]; Preemergence, 250 g ai/ha) | Plant response rating (0 to 100 scale) ([5]; Preemergence, 500 g ai/ha) | Plant response rating (0 to 100 scale) ([6]; Postemergence, 500 g ai/ha) | Plant response rating (0 to 100 scale) ([6]; Preemergence, 62 g ai/ha) | Plant response rating (0 to 100 scale) ([7]; Postemergence, 500 g ai/ha)
85: Plant response rating (0 to 100 scale) ([1]; Postemergence, 125 g ai/ha) | Plant response rating (0 to 100 scale) ([1]; Postemergence, 250 g ai/ha) | Plant response rating (0 to 100 scale) ([3]; Preemergence, 125 g ai/ha) | Plant response rating (0 to 100 scale) ([6]; Postemergence, 250 g ai/ha) | Plant response rating (0 to 100 scale) ([8]; Preemergence, 500 g ai/ha)
0: Plant response rating (0 to 100 scale) ([1]; Postemergence, 31 g ai/ha) | Plant response rating (0 to 100 scale) ([2]; Postemergence, 31 g ai/ha) | Plant response rating (0 to 100 scale) ([3]; Postemergence, 31 g ai/ha) | Plant response rating (0 to 100 scale) ([5]; Postemergence, 31 g ai/ha) | Plant response rating (0 to 100 scale) ([5]; Postemergence, 62 g ai/ha)
90: Plant response rating (0 to 100 scale) ([2]; Preemergence, 250 g ai/ha) | Plant response rating (0 to 100 scale) ([3]; Postemergence, 500 g ai/ha) | Plant response rating (0 to 100 scale) ([4]; Postemergence, 62 g ai/ha)
15: Plant response rating (0 to 100 scale) ([3]; Preemergence, 31 g ai/ha) | Plant response rating (0 to 100 scale) ([5]; Postemergence, 125 g ai/ha)
75: Plant response rating (0 to 100 scale) ([3]; Postemergence, 250 g ai/ha) | Plant response rating (0 to 100 scale) ([5]; Postemergence, 250 g ai/ha) | Plant response rating (0 to 100 scale) ([6]; Postemergence, 62 g ai/ha) | Plant response rating (0 to 100 scale) ([6]; Postemergence, 125 g ai/ha)
45: Plant response rating (0 to 100 scale) ([3]; Postemergence, 62 g ai/ha) | Plant response rating (0 to 100 scale) ([5]; Preemergence, 125 g ai/ha) | Plant response rating (0 to 100 scale) ([7]; Postemergence, 125 g ai/ha) | Plant response rating (0 to 100 scale) ([7]; Preemergence, 125 g ai/ha)
40: Plant response rating (0 to 100 scale) ([3]; Preemergence, 62 g ai/ha) | Plant response rating (0 to 100 scale) ([8]; Postemergence, 250 g ai/ha) | Plant response rating (0 to 100 scale) ([8]; Preemergence, 62 g ai/ha)
100: Plant response rating (0 to 100 scale) ([1]; Postemergence, 500 g ai/ha) | Plant response rating (0 to 100 scale) ([1]; Preemergence, 62 g ai/ha) | Plant response rating (0 to 100 scale) ([1]; Preemergence, 125 g ai/ha) | Plant response rating (0 to 100 scale) ([1]; Preemergence, 250 g ai/ha) | Plant response rating (0 to 100 scale) ([1]; Preemergence, 500 g ai/ha) | Plant response rating (0 to 100 scale) ([2]; Preemergence, 500 g ai/ha) | Plant response rating (0 to 100 scale) ([3]; Preemergence, 500 g ai/ha) | Plant response rating (0 to 100 scale) ([4]; Postemergence, 125 g ai/ha) | Plant response rating (0 to 100 scale) ([4]; Postemergence, 250 g ai/ha) | Plant response rating (0 to 100 scale) ([4]; Postemergence, 500 g ai/ha) | Plant response rating (0 to 100 scale) ([4]; Preemergence, 62 g ai/ha) | Plant response rating (0 to 100 scale) ([4]; Preemergence, 125 g ai/ha) | Plant response rating (0 to 100 scale) ([4]; Preemergence, 250 g ai/ha) | Plant response rating (0 to 100 scale) ([4]; Preemergence, 500 g ai/ha) | Plant response rating (0 to 100 scale) ([6]; Preemergence, 125 g ai/ha) | Plant response rating (0 to 100 scale) ([6]; Preemergence, 250 g ai/ha) | Plant response rating (0 to 100 scale) ([6]; Preemergence, 500 g ai/ha)
5: Plant response rating (0 to 100 scale) ([8]; Postemergence, 31 g ai/ha)
50: Plant response rating (0 to 100 scale) ([2]; Postemergence, 125 g ai/ha) | Plant response rating (0 to 100 scale) ([2]; Postemergence, 250 g ai/ha) | Plant response rating (0 to 100 scale) ([2]; Preemergence, 31 g ai/ha) | Plant response rating (0 to 100 scale) ([6]; Postemergence, 31 g ai/ha) | Plant response rating (0 to 100 scale) ([8]; Postemergence, 500 g ai/ha)
35: Plant response rating (0 to 100 scale) ([5]; Preemergence, 62 g ai/ha) | Plant response rating (0 to 100 scale) ([6]; Preemergence, 31 g ai/ha) | Plant response rating (0 to 100 scale) ([7]; Postemergence, 31 g ai/ha) | Plant response rating (0 to 100 scale) ([8]; Postemergence, 125 g ai/ha)
20: Plant response rating (0 to 100 scale) ([7]; Preemergence, 31 g ai/ha)
70: Plant response rating (0 to 100 scale) ([2]; Postemergence, 500 g ai/ha) | Plant response rating (0 to 100 scale) ([3]; Postemergence, 125 g ai/ha) | Plant response rating (0 to 100 scale) ([4]; Postemergence, 31 g ai/ha) | Plant response rating (0 to 100 scale) ([5]; Preemergence, 250 g ai/ha) | Plant response rating (0 to 100 scale) ([7]; Postemergence, 250 g ai/ha) | Plant response rating (0 to 100 scale) ([7]; Preemergence, 250 g ai/ha) | Plant response rating (0 to 100 scale) ([7]; Preemergence, 500 g ai/ha)

COC(=O)c1nc(C2CC2)nc(N)c1Cl [Compound 9, methyl 6-amino-5-chloro-2-cyclopropyl-4-pyrimidinecarboxylate]
73: SASKR Obsd. (observed effect) ([10]; 8 g a.i./ha)
50: SASKR Obsd. (observed effect) ([10]; 4 g a.i./ha)
45: SINAR Obsd. (observed effect) ([9]; 4 g a.i./ha) | CHEAL Obsd. (observed effect) ([11]; 4 g a.i./ha)
62: AMARE Obsd. (observed effect) ([12]; 4 g a.i./ha)
83: CHEAL Obsd. (observed effect) ([11]; 8 g a.i./ha)
47: SINAR Obsd. (observed effect) ([9]; 8 g a.i./ha)
70: AMARE Obsd. (observed effect) ([12]; 8 g a.i./ha)

— patent publication US8802597B2, “Herbicidal pyrimidines” (E I du Pont de Nemours and Company, priority 2003, dated 2014)
